# According to patent US11746087B1, “C4-carboxylic acid-substituted tryptamine derivatives and methods of using” (priority 2022, dated 2023):
# Experiments:
# [1] = target: DRD2S (Homo sapiens, UniProt P14416); test: EFC-based cAMP secondary messenger assay, agonist mode; assay type: cell-based
# [2] = target: DAT (Homo sapiens, UniProt Q01959); test: Neurotransmitter transporter uptake assay, blocker; assay type: cell-based
# [3] = target: NMDAR (Homo sapiens, UniProt Q05586+Q13224); test: Ion channel assay (FLIPR membrane potential), blocker; assay type: cell-based
# Sequence of NMDAR (Q13224 27-1484, other chains not shown): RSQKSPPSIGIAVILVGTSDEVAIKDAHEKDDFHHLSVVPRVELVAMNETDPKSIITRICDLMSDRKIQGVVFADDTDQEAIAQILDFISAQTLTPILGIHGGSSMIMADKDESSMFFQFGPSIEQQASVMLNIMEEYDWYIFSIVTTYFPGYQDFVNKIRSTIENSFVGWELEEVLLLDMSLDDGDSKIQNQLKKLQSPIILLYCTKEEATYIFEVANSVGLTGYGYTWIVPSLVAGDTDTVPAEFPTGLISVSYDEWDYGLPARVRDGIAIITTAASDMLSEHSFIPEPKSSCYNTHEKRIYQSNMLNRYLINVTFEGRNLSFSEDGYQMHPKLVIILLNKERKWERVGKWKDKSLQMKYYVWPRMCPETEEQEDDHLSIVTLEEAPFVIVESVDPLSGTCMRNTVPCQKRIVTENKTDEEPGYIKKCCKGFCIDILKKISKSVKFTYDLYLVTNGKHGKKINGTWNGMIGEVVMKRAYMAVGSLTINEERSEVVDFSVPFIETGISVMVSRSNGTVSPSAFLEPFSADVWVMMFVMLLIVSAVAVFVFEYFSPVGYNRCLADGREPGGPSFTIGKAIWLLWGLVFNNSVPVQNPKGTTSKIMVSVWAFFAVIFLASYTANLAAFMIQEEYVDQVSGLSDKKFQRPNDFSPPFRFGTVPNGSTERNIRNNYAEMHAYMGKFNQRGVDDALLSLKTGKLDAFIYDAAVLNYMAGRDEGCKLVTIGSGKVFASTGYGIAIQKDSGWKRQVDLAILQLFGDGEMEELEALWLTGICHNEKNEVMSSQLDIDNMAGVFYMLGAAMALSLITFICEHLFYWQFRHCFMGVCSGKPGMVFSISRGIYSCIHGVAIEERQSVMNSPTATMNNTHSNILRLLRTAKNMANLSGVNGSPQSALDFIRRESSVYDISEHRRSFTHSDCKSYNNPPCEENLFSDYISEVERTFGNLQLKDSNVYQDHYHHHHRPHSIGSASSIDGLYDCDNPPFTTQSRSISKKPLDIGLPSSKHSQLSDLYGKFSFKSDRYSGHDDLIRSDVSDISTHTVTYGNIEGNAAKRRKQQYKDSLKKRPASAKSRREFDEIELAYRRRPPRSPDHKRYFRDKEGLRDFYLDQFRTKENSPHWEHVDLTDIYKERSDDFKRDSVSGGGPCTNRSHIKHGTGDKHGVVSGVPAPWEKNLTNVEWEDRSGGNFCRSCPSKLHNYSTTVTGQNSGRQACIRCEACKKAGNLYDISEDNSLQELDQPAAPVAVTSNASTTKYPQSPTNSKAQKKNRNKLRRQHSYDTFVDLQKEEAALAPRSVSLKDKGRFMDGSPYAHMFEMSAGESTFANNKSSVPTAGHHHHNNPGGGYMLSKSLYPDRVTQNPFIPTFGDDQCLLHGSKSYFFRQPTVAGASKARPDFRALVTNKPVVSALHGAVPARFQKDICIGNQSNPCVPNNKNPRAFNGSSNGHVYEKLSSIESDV
# [4] = target: T1, HTR1B (5-HTR1B) (Homo sapiens, UniProt P28222); test: EFC-based cAMP secondary messenger assay, agonist mode; assay type: cell-based
# T1 sequence (P28222 whole entry): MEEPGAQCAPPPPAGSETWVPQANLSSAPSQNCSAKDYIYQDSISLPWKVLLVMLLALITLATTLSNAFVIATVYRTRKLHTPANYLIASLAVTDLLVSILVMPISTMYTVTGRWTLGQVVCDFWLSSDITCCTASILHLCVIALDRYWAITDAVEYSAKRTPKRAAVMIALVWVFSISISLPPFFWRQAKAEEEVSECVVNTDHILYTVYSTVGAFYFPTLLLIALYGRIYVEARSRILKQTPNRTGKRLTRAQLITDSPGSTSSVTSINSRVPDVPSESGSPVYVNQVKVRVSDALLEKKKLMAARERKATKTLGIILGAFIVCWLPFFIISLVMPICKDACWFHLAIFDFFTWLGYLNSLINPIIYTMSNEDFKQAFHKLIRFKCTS
# [5] = target: T2, CHRM2 (Homo sapiens, UniProt P08172); test: as above; assay type: cell-based
# T2 sequence (P08172 1-466): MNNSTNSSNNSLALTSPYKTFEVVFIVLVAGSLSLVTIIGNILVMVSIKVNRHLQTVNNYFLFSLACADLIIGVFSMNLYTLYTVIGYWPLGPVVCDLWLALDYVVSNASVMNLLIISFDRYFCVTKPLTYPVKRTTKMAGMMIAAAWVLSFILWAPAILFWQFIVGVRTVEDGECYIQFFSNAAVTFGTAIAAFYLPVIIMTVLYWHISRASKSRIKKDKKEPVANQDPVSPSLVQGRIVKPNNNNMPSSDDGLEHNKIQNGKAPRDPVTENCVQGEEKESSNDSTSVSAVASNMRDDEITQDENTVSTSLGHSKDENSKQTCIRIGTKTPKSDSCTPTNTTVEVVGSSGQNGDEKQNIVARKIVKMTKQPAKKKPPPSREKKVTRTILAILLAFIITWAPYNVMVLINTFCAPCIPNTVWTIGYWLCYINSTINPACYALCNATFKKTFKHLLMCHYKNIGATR
# [6] = target: OPRD1 (Homo sapiens, UniProt P41143); test: as above; assay type: cell-based
# Sequence of OPRD1 (P41143 whole entry): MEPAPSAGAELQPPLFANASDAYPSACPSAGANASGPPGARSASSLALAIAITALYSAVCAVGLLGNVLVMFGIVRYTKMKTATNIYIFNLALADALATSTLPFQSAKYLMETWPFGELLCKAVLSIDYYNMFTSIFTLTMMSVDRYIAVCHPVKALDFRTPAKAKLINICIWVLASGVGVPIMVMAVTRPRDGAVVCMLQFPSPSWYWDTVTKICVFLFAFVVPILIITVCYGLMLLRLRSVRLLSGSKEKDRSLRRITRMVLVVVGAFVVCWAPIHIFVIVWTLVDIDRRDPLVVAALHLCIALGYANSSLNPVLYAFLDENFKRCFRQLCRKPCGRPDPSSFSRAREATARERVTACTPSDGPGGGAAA
# [7] = target: T1, HTR1B (5-HTR1B); test: EFC-based cAMP secondary messenger assay, antagonist mode; assay type: cell-based
# [8] = target: T3, HTR3A (5-HT3A) (Homo sapiens, UniProt P46098); test: Ion channel assay (FLIPR membrane potential), blocker; assay type: cell-based
# T3 sequence (P46098 24-478): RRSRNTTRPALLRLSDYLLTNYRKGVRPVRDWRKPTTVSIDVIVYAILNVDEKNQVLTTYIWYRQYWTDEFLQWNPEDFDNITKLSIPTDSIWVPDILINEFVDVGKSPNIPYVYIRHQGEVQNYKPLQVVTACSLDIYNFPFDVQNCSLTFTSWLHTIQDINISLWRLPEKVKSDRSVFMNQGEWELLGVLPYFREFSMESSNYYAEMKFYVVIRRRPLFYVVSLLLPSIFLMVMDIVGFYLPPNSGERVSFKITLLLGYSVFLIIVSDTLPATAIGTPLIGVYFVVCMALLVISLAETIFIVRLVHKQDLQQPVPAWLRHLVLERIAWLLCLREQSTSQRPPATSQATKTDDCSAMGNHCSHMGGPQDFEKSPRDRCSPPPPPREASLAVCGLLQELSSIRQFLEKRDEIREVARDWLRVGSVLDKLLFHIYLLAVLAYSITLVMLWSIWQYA
# [9] = target: T4, CNR1 (Homo sapiens, UniProt P21554); test: EFC-based cAMP secondary messenger assay, antagonist mode; assay type: cell-based
# T4 sequence (P21554 whole entry): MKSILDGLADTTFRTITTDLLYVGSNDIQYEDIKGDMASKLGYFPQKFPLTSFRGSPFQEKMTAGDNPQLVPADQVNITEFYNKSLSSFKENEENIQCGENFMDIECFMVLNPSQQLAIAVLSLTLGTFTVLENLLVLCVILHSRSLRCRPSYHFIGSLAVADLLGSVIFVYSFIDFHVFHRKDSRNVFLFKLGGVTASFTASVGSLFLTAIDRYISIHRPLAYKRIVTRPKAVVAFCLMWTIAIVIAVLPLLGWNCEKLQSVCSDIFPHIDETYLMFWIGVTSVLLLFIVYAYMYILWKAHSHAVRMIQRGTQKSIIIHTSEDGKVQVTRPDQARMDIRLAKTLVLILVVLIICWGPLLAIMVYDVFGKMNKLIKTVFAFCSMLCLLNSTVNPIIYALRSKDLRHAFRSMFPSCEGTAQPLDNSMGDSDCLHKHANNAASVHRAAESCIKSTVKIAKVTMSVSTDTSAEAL
# [10] = target: DRD1 (Homo sapiens, UniProt P21728); test: as above; assay type: cell-based
# Sequence of DRD1 (P21728 whole entry): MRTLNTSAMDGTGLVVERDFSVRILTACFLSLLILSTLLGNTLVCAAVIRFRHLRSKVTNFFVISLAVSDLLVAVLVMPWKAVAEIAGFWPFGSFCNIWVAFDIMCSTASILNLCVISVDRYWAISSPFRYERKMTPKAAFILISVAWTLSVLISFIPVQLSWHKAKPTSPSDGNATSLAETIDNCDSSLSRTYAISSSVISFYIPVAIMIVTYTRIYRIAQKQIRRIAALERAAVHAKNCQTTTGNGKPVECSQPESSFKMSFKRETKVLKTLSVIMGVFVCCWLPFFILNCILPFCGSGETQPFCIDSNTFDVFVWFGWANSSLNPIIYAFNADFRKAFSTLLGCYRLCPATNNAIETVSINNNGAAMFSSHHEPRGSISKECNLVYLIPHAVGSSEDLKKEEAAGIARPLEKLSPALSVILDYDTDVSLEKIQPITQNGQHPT
# [11] = target: T3, HTR3A (5-HT3A); test: Ion channel assay (FLIPR membrane potential), opener; assay type: cell-based
# [12] = target: T5, ADRA2A (Homo sapiens, UniProt P08913); test: EFC-based cAMP secondary messenger assay, antagonist mode; assay type: cell-based
# T5 sequence (P08913 1-465): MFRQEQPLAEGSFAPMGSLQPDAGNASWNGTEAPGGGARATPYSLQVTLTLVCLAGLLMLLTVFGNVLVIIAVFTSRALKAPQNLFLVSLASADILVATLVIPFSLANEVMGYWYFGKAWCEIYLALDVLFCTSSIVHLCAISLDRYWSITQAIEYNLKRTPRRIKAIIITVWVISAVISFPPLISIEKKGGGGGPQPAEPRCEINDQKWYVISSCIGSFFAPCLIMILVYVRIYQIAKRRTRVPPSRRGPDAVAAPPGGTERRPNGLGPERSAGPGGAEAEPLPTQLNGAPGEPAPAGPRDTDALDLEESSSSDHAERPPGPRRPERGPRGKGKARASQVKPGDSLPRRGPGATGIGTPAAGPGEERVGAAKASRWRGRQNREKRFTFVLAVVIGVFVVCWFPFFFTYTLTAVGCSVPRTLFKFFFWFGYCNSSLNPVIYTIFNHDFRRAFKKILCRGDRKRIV
# [13] = target: T4, CNR1; test: EFC-based cAMP secondary messenger assay, agonist mode; assay type: cell-based
# [14] = Dosing solution concentration by LC-MS (measured vs nominal); assay type: physicochemical; conditions: C(IV) nominal 0.1 mg/mL
# Method: Briefly, the procedure was as follows. […] 19, 2022.
# Pharmacokinetic (PK) evaluations were performed in the same manner as described in Example 1, except compound C(IV) was used in place of compound C(V). […] Thus, only psilocin PK analysis was performed. […] Table 46 summarizes these “measured” concentrations along with corresponding “nominal” concentrations for each dosing solution. Results for psilocin PK following C(IV) administration are found in Tables 47A-47B (0.293 mg/kg IV dose), Tables 48A-48B (0.275 mg/kg oral dose), Tables 49A-49B (0.789 mg/kg oral dose), Tables 50A-50B (2.52 mg/kg oral dose), Table 51 (comparative summary for IV data), Table 52 (comparative summary for oral data), Table 53A (psilocin exposure) and FIGS. 10H (i) and 10H (ii).
# Sequence of DRD2S (P14416 1-414 isoform P14416-2): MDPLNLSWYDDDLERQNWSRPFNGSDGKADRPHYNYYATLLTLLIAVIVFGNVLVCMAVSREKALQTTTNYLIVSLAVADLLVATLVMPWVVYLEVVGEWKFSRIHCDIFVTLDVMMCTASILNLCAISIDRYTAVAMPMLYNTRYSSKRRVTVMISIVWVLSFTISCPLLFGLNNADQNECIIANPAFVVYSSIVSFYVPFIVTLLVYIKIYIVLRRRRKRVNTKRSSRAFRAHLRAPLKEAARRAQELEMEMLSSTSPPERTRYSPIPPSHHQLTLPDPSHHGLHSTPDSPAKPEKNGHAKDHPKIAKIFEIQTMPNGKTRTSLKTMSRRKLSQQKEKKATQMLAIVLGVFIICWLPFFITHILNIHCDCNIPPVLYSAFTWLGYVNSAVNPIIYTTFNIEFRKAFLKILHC
# Sequence of DAT (Q01959 whole entry): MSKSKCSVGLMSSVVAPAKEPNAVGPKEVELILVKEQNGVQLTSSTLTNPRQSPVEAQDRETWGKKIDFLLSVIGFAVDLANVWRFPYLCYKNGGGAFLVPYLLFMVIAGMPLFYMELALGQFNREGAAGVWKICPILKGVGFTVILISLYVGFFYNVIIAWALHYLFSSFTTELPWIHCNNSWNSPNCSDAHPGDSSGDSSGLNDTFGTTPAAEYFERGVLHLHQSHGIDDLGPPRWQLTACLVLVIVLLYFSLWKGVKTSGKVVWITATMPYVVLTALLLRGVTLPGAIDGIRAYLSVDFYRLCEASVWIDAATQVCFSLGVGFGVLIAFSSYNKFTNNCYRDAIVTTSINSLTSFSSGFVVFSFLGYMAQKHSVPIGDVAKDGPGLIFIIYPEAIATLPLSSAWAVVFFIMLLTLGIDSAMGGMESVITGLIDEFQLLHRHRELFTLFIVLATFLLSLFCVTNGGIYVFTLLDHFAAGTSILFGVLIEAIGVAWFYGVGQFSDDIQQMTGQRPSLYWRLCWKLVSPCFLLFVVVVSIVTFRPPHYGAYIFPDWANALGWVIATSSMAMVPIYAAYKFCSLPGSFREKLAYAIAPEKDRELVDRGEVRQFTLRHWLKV
structure (smiles),measurement,setting,value
CN(C)CCc1c[nH]c2cccc(OC(=O)c3c(F)c(F)c(F)c(F)c3F)c12 [C(VI)],EC50,[1],1.09 µM
same,IC50,[2],> 100 µM
same,IC50,[3],> 100 µM
same,EC50,[4],0.1 µM
same,EC50,[5],> 100 µM
same,EC50,[6],59.4 µM
same,IC50,[7],> 100 µM
same,IC50,[8],55.1 µM
same,IC50,[9],> 100 µM
same,IC50,[10],51.6 µM
same,EC50,[11],> 100 µM
same,IC50,[12],> 100 µM
same,EC50,[13],62.9 µM
CN(C)CCc1c[nH]c2cccc(OC(=O)c3cccc4c3OCCO4)c12 [C(XX)],EC50,[1],1.72 µM
same,IC50,[2],> 100 µM
same,IC50,[3],> 100 µM
same,EC50,[4],0.2 µM
same,EC50,[5],> 100 µM
same,EC50,[6],> 100 µM
same,IC50,[7],> 100 µM
same,IC50,[8],3.77 µM
same,IC50,[9],> 100 µM
same,IC50,[10],11.1 µM
same,EC50,[11],> 100 µM
same,IC50,[12],47.9 µM
same,EC50,[13],> 100 µM
CN(C)CCc1c[nH]c2cccc(OC(=O)CC3CC3)c12 [C(IV)],EC50,[1],1.4 µM
same,IC50,[2],> 100 µM
same,"Psilocin, measured, in C(IV) residual dosing solution",[14],0.00174 mg/mL
same,IC50,[3],> 100 µM
same,EC50,[4],0.027 µM
same,EC50,[5],> 100 µM
same,EC50,[6],37.8 µM
same,IC50,[7],> 100 µM
same,IC50,[8],76.7 µM
same,IC50,[9],> 100 µM
same,IC50,[10],32.9 µM
same,EC50,[11],> 100 µM
same,IC50,[12],> 100 µM
same,EC50,[13],> 100 µM
CN(C)CCc1c[nH]c2cccc(OC(=O)c3ccc(Br)cc3)c12 [C(I)],EC50,[1],83.4 µM
same,IC50,[2],42.4 µM
same,IC50,[3],> 100 µM
same,EC50,[4],2.14 µM
same,EC50,[5],> 100 µM
same,EC50,[6],> 100 µM
same,IC50,[7],> 100 µM
same,IC50,[8],7.52 µM
same,IC50,[9],> 100 µM
same,IC50,[10],24.5 µM
same,EC50,[11],> 100 µM
same,IC50,[12],18.4 µM
same,EC50,[13],54.2 µM
COc1ccc(C(=O)Oc2cccc3[nH]cc(CCN(C)C)c23)cc1 [C(V)],EC50,[1],> 100 µM
same,IC50,[2],> 100 µM
same,IC50,[3],> 100 µM
same,EC50,[4],0.29 µM
same,EC50,[5],> 100 µM
same,EC50,[6],51.5 µM
same,IC50,[7],> 100 µM
same,IC50,[8],33.9 µM
same,IC50,[9],> 100 µM
same,IC50,[10],12 µM
same,EC50,[11],> 100 µM
same,IC50,[12],> 100 µM
same,EC50,[13],> 100 µM
